This note sets out measurements from publication PMC3866151, “Phenylthiophenecarboxamide Antagonists of the Olfactory Receptor Co-Receptor Subunit from a Mosquito” (PLoS ONE, 2013).

The target of the assay is Cqui\Orco+Cqui\Or21 (Culex quinquefasciatus, UniProt Q309I4). The experiment in a line: Agonist activation (concentration-response) of the OR expressed in Xenopus oocytes, two-electrode voltage clamp. In kind it is cell-based. The procedure: Oocytes were surgically removed from mature Xenopus laevis frogs. Follicle cells were removed by treatment with Collagenase B (Boehringer Mannhem) for 2 hours at room temperature. Capped cRNA encoding each OR subunit was generated using mMessage mMachine kits (Ambion). For heteromeric ORs, 25 ng of cRNA encoding each OR subunit was injected into Stage V-VI Xenopus oocytes. For expression of Orco alone, 50 ng of cRNA was injected. Oocytes were incubated at 18°C in Barth's saline (in mM: 88 NaCl, 1 KCl, 2.4 NaHCO3, 0.3 CaNO3, 0.41 CaCl2, 0.82 MgSO4, 15 HEPES, pH 7.6, and 150 µg/ml ceftazidime) for 2–5 days prior to electrophysiological recording.
Sequence of Cqui\Orco+Cqui\Or21 (Q309I4 entry or part of it): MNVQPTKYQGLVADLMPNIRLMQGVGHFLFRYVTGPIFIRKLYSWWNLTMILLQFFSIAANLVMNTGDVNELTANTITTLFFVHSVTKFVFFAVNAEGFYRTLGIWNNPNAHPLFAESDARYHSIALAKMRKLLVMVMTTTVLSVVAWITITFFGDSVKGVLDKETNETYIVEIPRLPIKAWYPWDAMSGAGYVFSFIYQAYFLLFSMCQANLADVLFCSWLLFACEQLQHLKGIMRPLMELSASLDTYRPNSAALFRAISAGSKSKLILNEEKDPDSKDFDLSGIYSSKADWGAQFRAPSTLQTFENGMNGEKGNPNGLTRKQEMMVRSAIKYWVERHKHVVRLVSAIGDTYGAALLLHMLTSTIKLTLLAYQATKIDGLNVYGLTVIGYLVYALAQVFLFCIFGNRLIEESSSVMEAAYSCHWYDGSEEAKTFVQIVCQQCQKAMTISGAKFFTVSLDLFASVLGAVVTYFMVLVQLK
Odorant and Orco ligand induced currents were recorded under two-electrode voltage clamp, using an automated parallel electrophysiology system (OpusExpress 6000A; Molecular Devices). Oocytes were perfused with ND96 (in mM: 96 NaCl, 2 KCl, 1 CaCl2, 1 MgCl2, 5 HEPES, pH 7.5). Orco ligands were prepared as 50 or 100 mM stock solutions in DMSO and then diluted into ND96 on the day of the experiment. Unless otherwise noted, applications were for 60 sec at a flow rate of 1.0 ml/min, with extensive washing in ND96 at 4.6 ml/min between applications. For the concentration-response protocol in Figure 1d , applications were for 20 sec at a flow rate of 1.65 ml/min. Micropipettes were filled with 3 M KCl and had resistances of 0.2–2.0 MΩ. The holding potential was -70 mV. Current responses, filtered (4-pole, Bessel, low pass) at 20 Hz (-3 db) and sampled at 100 Hz, were captured and stored using OpusXpress 1.1 software (Molecular Devices).
Initial analysis of electrophysiological data was done using Clampfit 9.1 software (Molecular Devices). Curve fitting and statistical analyses were done using Prism 5 (Graphpad). Concentration-response data were fit to the equation: I = Imax/(1+(EC50/X)^n) where I represents the current response at a given concentration of odorant, X; Imax is the maximal response; EC50 is the concentration of agonist yielding a half maximal response; n is the apparent Hill coefficient. Concentration-inhibition data were fit to the equation: I = Imax / (1+ (X/IC50)^n) where I represents the current response at a given concentration of inhibitor, X; Imax is the maximal response in the absence of inhibitor; IC50 is the concentration of inhibitor present that still allows a half maximal response from odorant; n is the apparent Hill coefficient. Statistical significance was assessed using a two-tailed unpaired t test, an F test, or a one-way analysis of variance followed by the Dunnett's post-test, as appropriate.
A general note: Two-electrode voltage clamp holds a large cell at a set potential and records current.

Structures are written as SMILES. Where two headings read alike, the source gives them in different places.

As for `Cc1c[nH]c2ccccc12` [Compound 3MI, 3-methylindole], the concentration for a half-maximal effect (EC50) (in general, the concentration needed to bring the measured effect to its halfway point) is, setting by setting: (3MI alone, read-out: EC50 for activation of Cqui\Orco+Cqui\Or21 by 3MI) 32 ± 7 nM; (in presence of 50 µM OX1a, read-out: EC50 for 3MI activation of Cqui\Orco+Cqui\Or21) 37 ± 7 nM.

As for `CCn1c(SCC(=O)Nc2ccc(C(C)C)cc2)nnc1-c1ccncc1` [OLC12, 2-((4-ethyl-5-(4-pyridinyl)-4H-1,2,4-triazol-3-yl)sulfanyl)-N-(4-isopropylphenyl)-acetamide], the “nH for OLC12 activation of Cqui\Orco+Cqui\Or21” value is on record as 1.42 ± 0.32. In addition, for the setting “read-out: EC50 for OLC12 activation of Cqui\Orco+Cqui\Or21”, the EC50 is 6600 ± 1400 nM.
